# Test results from the supplement of paper PMC10307832.
# Assays:
# Assay in all cases: relative viability (nuclei count vs DMSO), 5 days (fraction); higher = more cells survive
# [1] = compound: CC1(C)CCC(c2ccc(Cl)cc2)=C(CN2CCN(c3ccc(C(=O)NS(=O)(=O)c4ccc(N[C@H](CCN5CCOCC5)CSc5ccccc5)c(S(=O)(=O)C(F)(F)F)c4)cc3)CC2)C1 [Navitoclax]
# In short: (§1)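 Lung cancer cell lines in 1536-well plates were exposed by pinning to five library-drug doses (not always all listed) √10 apart, following an overnight hold at 37 °C. MetaXpress counted Hoechst-stained nuclei from 4× images taken after 5 days without medium change. Viability is the median ratio of treated-well to vehicle-well nuclei across plates. Plates required control CV below 25% and at least one doubling.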
# [2] = compound: CCCCCCCC[C@H]1[C@@H](C(=C)C(=O)O1)C(=O)O [C-75]
# In short: as §1
# [3] = compound: NC(=O)Nc1cc(-c2cccc(F)c2)sc1C(=O)N[C@H]1CCCNC1 [AZD7762]
# In short: as §1
# [4] = compound: O=C(O)c1ccc(-c2c[nH]c3ncc(-c4ccccc4)cc23)cc1C1CCCC1
# In short: as §1
# [5] = compound: Oc1nc(-c2ccc(C(F)(F)F)cc2)nc2c1CSCC2 [XAV939]
# In short: as §1
Cell Line,relative viability ([1]; 0.005 µM),relative viability ([1]; 0.01581 µM),relative viability ([1]; 0.05 µM),relative viability ([1]; 0.1581 µM),relative viability ([1]; 0.5 µM),"relative viability ([1]; 0.5 µM, anchor plate)",relative viability ([2]; 0.08 µM),relative viability ([2]; 0.253 µM),relative viability ([2]; 0.8 µM),relative viability ([2]; 2.53 µM),relative viability ([2]; 8 µM),relative viability ([3]; 0.01 µM),relative viability ([3]; 0.03162 µM),relative viability ([3]; 0.1 µM),"relative viability ([3]; 0.2 µM, anchor plate)",relative viability ([3]; 0.3162 µM),relative viability ([3]; 1 µM),relative viability ([4]; 0.04 µM),relative viability ([4]; 0.1265 µM),relative viability ([4]; 0.4 µM),relative viability ([4]; 1.265 µM),relative viability ([5]; 0.08 µM),relative viability ([5]; 0.253 µM),relative viability ([5]; 0.8 µM),relative viability ([5]; 2.53 µM)
201T,1.06,1.14,0.974,0.957,1.04,1.19,1.02,1.16,0.987,0.917,0.993,0.937,1.01,1.02,0.596,0.92,0.878,0.997,1.05,0.948,1,0.96,0.808,0.762,0.846
A549,0.974,1.05,0.999,0.956,0.935,1.23,0.944,1.14,0.874,0.83,0.913,1,0.982,0.994,–,0.974,0.507,0.957,1.03,0.99,0.818,1.05,0.798,0.911,0.811
A-427,1.02,0.977,0.959,1,1.03,0.968,1.05,0.938,0.948,0.847,0.82,0.988,1.02,1.03,0.784,0.852,0.419,1.03,1.11,0.998,0.888,1.12,0.936,0.933,0.897
ABC-1,0.833,0.977,0.846,0.984,0.976,–,0.904,0.864,0.917,0.733,0.676,0.975,0.985,0.956,0.809,0.532,0.384,0.801,1.16,0.861,0.936,0.927,0.847,0.677,0.568
BEN,0.973,1.12,0.839,0.942,–,–,1.11,1.02,0.898,0.756,0.817,1.05,0.963,0.958,0.743,0.907,0.873,0.931,1.08,1,0.935,1.01,0.869,0.897,0.835
CAL-12T,0.935,1.05,1.01,0.985,1.01,1.14,1.06,1.15,0.859,0.922,1.08,0.993,0.982,1.06,0.646,0.724,0.241,1.08,1.17,0.914,0.734,1,0.884,0.877,0.814
COR-L23,0.934,1.16,1.15,0.974,0.965,1.01,0.965,1.04,0.945,0.778,1.06,1.1,0.912,1.17,–,0.854,0.231,0.921,1.01,0.973,0.723,1.11,0.92,1.01,0.928
COR-L 105,0.808,1.21,0.965,0.98,0.922,0.841,0.939,0.876,0.877,0.755,0.801,0.949,0.918,0.822,–,0.613,0.502,1,0.951,0.945,0.88,1.03,0.857,0.78,0.6
Calu-6,0.979,1.01,1.1,0.933,0.93,0.824,1.03,1.02,0.964,0.912,0.948,1.05,0.992,0.873,–,0.475,0.145,0.982,1.01,0.955,0.78,1.07,0.904,0.985,0.944
ChaGo-K-1,1.03,1.01,0.727,0.961,1.04,1.09,0.93,0.98,0.931,0.799,0.966,1.01,0.969,1.06,0.873,0.905,0.841,1.05,1.01,0.896,1.02,0.978,0.894,1.03,0.973
EBC-1,0.931,1.17,0.958,1.1,0.718,0.451,1.04,1.08,0.956,0.84,0.757,1.1,0.98,0.993,–,0.939,0.576,1.02,1.14,0.923,0.633,1.05,0.901,0.882,0.817
EKVX,1.03,1.28,0.87,0.969,0.915,0.954,0.971,0.967,0.847,–,1.02,0.947,1.03,0.929,0.696,0.962,0.8,0.962,1.14,1.01,0.865,1.04,0.852,0.833,0.694
EMC-BAC-2,0.924,1.02,0.981,0.932,0.976,1.16,0.959,0.952,0.908,0.828,0.921,1.05,1.02,1.05,1.17,0.995,0.975,0.993,1.04,0.974,0.899,1.01,0.969,0.869,0.655
EPLC-272H,0.993,–,0.888,0.922,0.921,1.13,1.06,1.01,0.78,0.744,0.575,0.892,1.06,0.935,0.278,0.742,0.267,0.976,1.1,0.992,0.697,0.95,0.97,0.92,0.957
H3255,0.979,1.17,0.87,0.92,0.786,0.529,0.963,0.973,0.945,0.901,0.995,1.05,1.04,1.04,0.971,0.958,0.856,0.954,1.04,0.97,0.944,1.06,0.892,0.814,0.895
HARA,0.84,1.26,0.811,0.911,1.01,1.13,0.989,0.963,0.858,0.788,1.03,0.986,0.946,0.999,0.367,0.88,0.368,0.955,1.23,0.846,1.02,1.04,0.904,0.825,0.764
HCC-15,0.986,1.14,0.838,0.99,0.947,0.696,1,0.965,0.968,0.798,0.925,1.02,0.907,1.02,1.24,0.969,1.03,1.03,1.07,0.965,0.586,1.14,0.932,0.96,0.971
HCC-44,0.897,0.906,0.977,0.849,0.96,0.98,1,0.991,0.908,0.824,1.05,1.01,0.958,1.06,1,0.874,0.914,0.97,0.99,0.973,0.928,0.962,0.899,0.915,0.929
HCC-78,1.03,1.11,0.729,0.958,1.02,0.737,0.948,0.882,0.817,0.761,0.95,1.02,1.14,0.978,0.706,0.95,0.552,0.929,1.24,1.1,0.864,0.923,0.8,0.919,0.667
HCC-366,1.04,1.05,0.728,0.968,1.07,1.03,0.974,1.11,0.975,0.763,0.982,0.981,1.03,0.998,0.289,0.886,0.393,1,1.02,0.998,0.971,0.971,0.9,1,1.01
HCC-827,1.07,1.12,0.953,1.04,1.05,1.02,1.01,0.953,1.01,0.976,1.07,1.05,1.08,1.08,0.23,1.1,0.731,0.96,1.07,0.993,0.863,1.04,1.06,0.991,1.02
HOP-62,0.966,1.06,0.968,0.926,1.03,1,1.02,1.01,1.01,0.891,1.02,1.04,0.999,1.17,0.639,1.02,0.939,1.08,1.07,0.964,0.923,1.13,0.996,0.891,0.893
IA-LM,0.941,1.07,0.915,1,0.977,0.755,0.917,1.14,0.87,0.676,0.853,1.12,1.02,1.15,–,1.01,0.708,0.921,1.1,1.07,0.887,0.937,0.864,0.935,0.701
LC-2-ad,0.961,1.07,0.925,0.948,0.991,0.445,1.05,1.02,0.93,0.789,0.986,0.992,1.1,0.998,0.86,0.908,0.644,0.973,1.1,0.933,0.692,1.03,0.904,0.953,1
LCLC-97TM1,0.966,1.06,0.915,0.94,1.02,0.502,0.963,1.09,0.95,0.813,0.622,1.05,0.98,1.11,0.281,0.926,0.588,1.04,0.957,0.98,0.901,0.975,0.764,0.879,0.944
LCLC-103H,1.02,1.03,0.83,1.04,1.05,–,0.919,0.998,0.909,0.788,1.03,1.03,0.974,1.02,0.796,0.907,0.992,1.01,1.08,0.991,1.09,1.08,0.914,0.92,0.831
LK-2,1.02,1.03,1.11,0.997,1.02,0.886,0.911,1.25,1.02,0.841,0.706,1.05,1.12,0.955,0.467,0.938,0.776,1,1.06,0.872,0.944,1.06,0.877,1.01,0.755
